Here are results for two compounds from US20230146455A1, “TREATMENT OF INFLAMMATORY DISEASES WITH PEPTIDES AND PHARMACEUTICAL COMPOSITIONS” (Yuyu Pharma, Inc., priority 2020, published 2023).

This test relates to CCL2/JE/MCP-1. In words: Example 9 Luminex, LPS hPBMCs: CCL2/JE/MCP-1. Type of test: cell-based, human. The method, then:
Treatment Human PBMCs were pretreated with YY-101, YDE-011 and YDE-043 or reference compound; Xiidra® at various concentration (ranging from 1 nM to 100 uM) for 2 h before stimulation. An equal volume of 0.5% DMSO was used as a vehicle control. Then, the cells were treated with LPS at 5 ug/ml. The supernatants from treated cells were harvested at 24 h and placed in a 96 well for Luminex cytokine & chemokine profiling using a Luminex 200 multiplex assay (Luminex; R&D system, USA).
The main study arm with triplicate wells per group in a 24-well plate: • 1. Blank • 2. PBMC: 0.5% DMSO • 3. PBMC+LPS (5 ug/ml) • 4. PBMC+YY-101 100 uM • 5. PBMC+YY-101 10 uM • 6. PBMC+YY-101 1 uM • 7. PBMC+YY-101 0.1 uM • 8. PBMC+YY-101 0.01 uM • 9. PBMC+LPS (5 ug/ml)+Xiidra®100 uM • 10. PBMC+LPS (5 ug/ml)+Xiidra® 10 uM • 11. PBMC+LPS (5 ug/ml)+Xiidra® 1 uM • 12. PBMC+LPS (5 ug/ml)+Xiidra®0.1 uM • 13. PBMC+LPS (5 ug/ml)+Xiidra®0.01 uM • 14. PBMC+LPS (5 ug/ml)+Xiidra®0.001 uM • 15. PBMC+LPS (5 ug/ml)+YY-101 100 uM • 16. PBMC+LPS (5 ug/ml)+YY-101 10 uM • 17. PBMC+LPS (5 ug/ml)+YY-101 1 uM • 18. PBMC+LPS (5 ug/ml)+YY-101 0.1 uM • 19. PBMC+LPS (5 ug/ml)+YY-101 0.01 uM • 20. PBMC+LPS (5 ug/ml)+YY-101 0.001 uM • 21. PBMC+LPS (5 ug/ml)+YDE-011 100 uM • 22. PBMC+LPS (5 ug/ml)+YDE-011 10 uM • 23. PBMC+LPS (5 ug/ml)+YDE-011 1 uM • 24. PBMC+LPS (5 ug/ml)+YDE-011 0.1 uM • 25. PBMC+LPS (5 ug/ml)+YDE-011 0.01 uM • 26. PBMC+LPS (5 ug/ml)+YDE-011 0.001 uM • 27. PBMC+LPS (5 ug/ml)+YDE-043 100 uM • 28. PBMC+LPS (5 ug/ml)+YDE-043 10 uM • 29. PBMC+LPS (5 ug/ml)+YDE-043 1 uM • 30. PBMC+LPS (5 ug/ml)+YDE-043 0.1 uM • 31. PBMC+LPS (5 ug/ml)+YDE-043 0.01 uM • 32. PBMC+LPS (5 ug/ml)+YDE-043 0.001 uM
Multiplex assay was used to measure 30 cytokines and chemokines. The 1:2, 1:10 and 1:200 diluted cell supernatant and serial dilution of the standard were dispensed into a 96 well plate at 50 ul/well. Then, the pre-mixed cocktail of antibody-coated magnetic beads was dispensed at 50 ul/well and incubated at room temperature for 2 h in a horizontal orbital microplate shaker at 800±500 rpm. The beads were washed using a magnetic device to prevent loss. The biotin-antibody was dispensed in 50 ul of each well and incubated at room temperature for 1 h in a shaker at 800±500 rpm. After washing, streptavidin-PE was added at 50 ul/well and incubated at room temperature for 30 min in a shaker under the same conditions. Finally, after washing, wash buffer (100 ul/well) was added to the plate and incubated in a shaker for 2 min. The Luminex™ 200 setting were set according to the manufacturer's protocol. The data was calculated with a standard five-parameter logistic nonlinear regression analysis of the data (xPonent software 4.2, USA). The levels of cytokine/chemokine are normalized to the live cell counts (1×10^5 cells/mL) and presented as concentrations per mL (pg/mL or ng/mL).

The mark [1] stands for this setting: PBMC + LPS(5 ug/ml) + test article 0.001 uM, Mean.
[2] abbreviates: PBMC + LPS(5 ug/ml) + test article 0.001 uM, individual replicates.
The mark [3] stands for this setting: PBMC + LPS(5 ug/ml) + test article 0.01 uM, Mean.
Where [4] appears, read: PBMC + LPS(5 ug/ml) + test article 0.01 uM, individual replicates.
[5] abbreviates: PBMC + LPS(5 ug/ml) + test article 0.1 uM, Mean.
Where [6] appears, read: PBMC + LPS(5 ug/ml) + test article 0.1 uM, individual replicates.
Setting [7] is: PBMC + LPS(5 ug/ml) + test article 1 uM, Mean.
The mark [8] stands for this setting: PBMC + LPS(5 ug/ml) + test article 1 uM, individual replicates.
Setting [9] is: PBMC + LPS(5 ug/ml) + test article 10 uM, Mean.
The mark [10] stands for this setting: PBMC + LPS(5 ug/ml) + test article 10 uM, individual replicates.
The mark [11] stands for this setting: PBMC + LPS(5 ug/ml) + test article 100 uM, Mean.
Where [12] appears, read: PBMC + LPS(5 ug/ml) + test article 100 uM, individual replicates.

Values joined by “and” are separate entries in the source; they are usually repeats but may differ in a detail not shown here. Equal values may be shown once. Where a SMILES comes first, the peptide text is derived from it. [ ]: non-standard residue; d: D form. Hyp = O=C(O)[C@@H]1C[C@@H](O)CN1

As for `CC(C)C[C@H](NC(=O)CNC(=O)[C@H](CC(C)C)NC(=O)[C@H](CCC(N)=O)NC(=O)CNC(=O)[C@@H]1C[C@@H](O)CN1)C(=O)N[C@@H](C)C(=O)NCC(=O)N1CCC[C@H]1C(=O)N[C@@H](CCCCN)C(=O)O` [YDE-011] (H-[Hyp]GQLGLAGPK-OH), the Concentration reads like this: under setting [1], 1881.3 pg/mL; under setting [2], 1856.7 pg/mL and 1905.5 pg/mL and 1881.6 pg/mL; under setting [3], 1974.9 pg/mL; under setting [4], 1895.6 pg/mL and 2063.3 pg/mL and 1965.9 pg/mL; under setting [5], 1708.3 pg/mL; under setting [6], 1699.1 pg/mL and 1759.6 pg/mL and 1666.0 pg/mL. The Concentration reads like this: under setting [7], 1797.0 pg/mL; under setting [8], 1795.6 pg/mL and 1880.8 pg/mL and 1714.5 pg/mL; under setting [9], 1564.4 pg/mL; under setting [10], 1502.6 pg/mL and 1615.2 pg/mL and 1575.4 pg/mL; under setting [11], 281.9 pg/mL; under setting [12], 252.0 pg/mL and 301.1 pg/mL and 292.6 pg/mL. In addition, the conc/live cell is, setting by setting: under setting [1], 355.2 pg/10^5; under setting [2], 412.6 pg/10^5 and 328.5 pg/10^5 and 324.4 pg/10^5; under setting [3], 339.7 pg/10^5; under setting [4], 300.9 pg/10^5 and 332.8 pg/10^5 and 385.5 pg/10^5; under setting [5], 300.6 pg/10^5; under setting [6], 257.4 pg/10^5 and 351.9 pg/10^5 and 292.3 pg/10^5. Also, the conc/live cell runs as follows: under setting [7], 358.5 pg/10^5; under setting [8], 326.5 pg/10^5 and 391.8 pg/10^5 and 357.2 pg/10^5; under setting [9], 297.3 pg/10^5; under setting [10], 278.3 pg/10^5 and 278.5 pg/10^5 and 335.2 pg/10^5; under setting [11], 46.5 pg/10^5; under setting [12], 41.3 pg/10^5 and 49.4 pg/10^5 and 48.8 pg/10^5.

On to `CC(C)C[C@H](NC(=O)[C@H](CCC(N)=O)NC(=O)CNC(=O)[C@@H]1C[C@@H](O)CN1)C(=O)NCC(=O)O` [YDE-043] (H-[Hyp]GQLG-OH; N-terminus and C-terminus assumed), for which the Concentration is, setting by setting: under setting [1], 2109.3 pg/mL; under setting [2], 2082.8 pg/mL and 2215.5 pg/mL and 2029.7 pg/mL; under setting [3], 2023.7 pg/mL; under setting [4], 2036.2 pg/mL and 1963.4 pg/mL and 2071.4 pg/mL; under setting [5], 1922.5 pg/mL; under setting [6], 2109.9 pg/mL and 1768.2 pg/mL and 1889.5 pg/mL. Further, the Concentration was 2123.4 pg/mL under setting [7]; 2174.1 pg/mL and 2114.7 pg/mL and 2081.5 pg/mL under setting [8]; 1799.9 pg/mL under setting [9]; 1889.0 pg/mL and 1766.4 pg/mL and 1744.2 pg/mL under setting [10]; 281.0 pg/mL under setting [11]; 258.9 pg/mL and 303.0 pg/mL under setting [12]. Besides, the conc/live cell runs as follows: under setting [1], 427.9 pg/10^5; under setting [2], 473.4 pg/10^5 and 369.2 pg/10^5 and 441.2 pg/10^5; under setting [3], 388.1 pg/10^5; under setting [4], 452.5 pg/10^5 and 297.5 pg/10^5 and 414.3 pg/10^5; under setting [5], 358.4 pg/10^5; under setting [6], 422.0 pg/10^5 and 315.8 pg/10^5 and 337.4 pg/10^5. Further, the conc/live cell was 402.7 pg/10^5 under setting [7]; 374.9 pg/10^5 and 440.6 pg/10^5 and 392.7 pg/10^5 under setting [8]; 333.9 pg/10^5 under setting [9]; 363.3 pg/10^5 and 327.1 pg/10^5 and 311.5 pg/10^5 under setting [10]; 44.6 pg/10^5 under setting [11]; 41.8 pg/10^5 and 47.3 pg/10^5 under setting [12].
